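Where inhibition never reached the appropriate level, the endpoint shown equals the highest concentration tested. Otherwise, values were interpolated linearly from a five-concentration, 48-hour dose response in 96-well plates. The concentration for full growth arrest is given as TGI.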
Key:
Assay in all cases: NCI anticancer screen, dose series, 48 h
786-0 renal = system: 786-0 renal
SNB-75 CNS = system: SNB-75 CNS
DU-145 prostate = system: DU-145 prostate
SF-295 CNS = system: SF-295 CNS
HL-60(TB) leukemia = system: HL-60(TB) leukemia
SR leukemia = system: SR leukemia
HS 578T breast = system: HS 578T breast
IGROV1 ovarian = system: IGROV1 ovarian
SK-MEL-2 melanoma = system: SK-MEL-2 melanoma
OVCAR-4 ovarian = system: OVCAR-4 ovarian
UO-31 renal = system: UO-31 renal
HCT-15 colon = system: HCT-15 colon
UACC-257 melanoma = system: UACC-257 melanoma
OVCAR-8 ovarian = system: OVCAR-8 ovarian
OVCAR-5 ovarian = system: OVCAR-5 ovarian
LOX IMVI melanoma = system: LOX IMVI melanoma
OVCAR-3 ovarian = system: OVCAR-3 ovarian
NCI-H460 lung = system: NCI-H460 lung
HCT-116 colon = system: HCT-116 colon
RPMI-8226 leukemia = system: RPMI-8226 leukemia
SF-539 CNS = system: SF-539 CNS
BT-549 breast = system: BT-549 breast
M14 melanoma = system: M14 melanoma
SNB-19 CNS = system: SNB-19 CNS
MALME-3M melanoma = system: MALME-3M melanoma
U251 CNS = system: U251 CNS
A549 NSCLC = system: A549 NSCLC
COLO 205 colon = system: COLO 205 colon
KM12 colon = system: KM12 colon
SW-620 colon = system: SW-620 colon
MDA-N = system: MDA-N
SF-268 CNS = system: SF-268 CNS
PC-3 prostate = system: PC-3 prostate
RXF 393 renal = system: RXF 393 renal
NCI-H522 lung = system: NCI-H522 lung
TK-10 renal = system: TK-10 renal
SK-MEL-28 melanoma = system: SK-MEL-28 melanoma
SN12C renal = system: SN12C renal
MCF7 breast = system: MCF7 breast
SK-OV-3 ovarian = system: SK-OV-3 ovarian
ACHN renal = system: ACHN renal
EKVX NSCLC = system: EKVX NSCLC
MDA-MB-435 = system: MDA-MB-435
CCRF-CEM leukemia = system: CCRF-CEM leukemia
A498 renal = system: A498 renal
HOP-62 NSCLC = system: HOP-62 NSCLC
T-47D breast = system: T-47D breast
NCI/ADR-RES ovarian = system: NCI/ADR-RES ovarian
CAKI-1 renal = system: CAKI-1 renal
UACC-62 melanoma = system: UACC-62 melanoma
HT29 colon = system: HT29 colon
SK-MEL-5 melanoma = system: SK-MEL-5 melanoma
NCI-H23 lung = system: NCI-H23 lung
MDA-MB-231 breast = system: MDA-MB-231 breast
K-562 leukemia = system: K-562 leukemia
HOP-92 NSCLC = system: HOP-92 NSCLC
NCI-H226 lung = system: NCI-H226 lung
HCC-2998 colon = system: HCC-2998 colon

C/C(=N\Nc1nc2ccccc2s1)c1ccc2ccccc2n1
TGI (786-0 renal): > 100 µM | TGI (SNB-75 CNS): 97.2 µM | TGI (DU-145 prostate): > 100 µM | TGI (SF-295 CNS): > 100 µM | TGI (HL-60(TB) leukemia): 52.9 µM | TGI (SR leukemia): 5.88 µM | TGI (HS 578T breast): > 100 µM | TGI (IGROV1 ovarian): 47.1 µM | TGI (SK-MEL-2 melanoma): > 100 µM | TGI (OVCAR-4 ovarian): > 100 µM | TGI (UO-31 renal): > 100 µM | TGI (HCT-15 colon): > 100 µM | TGI (UACC-257 melanoma): > 100 µM | TGI (OVCAR-8 ovarian): > 100 µM | TGI (OVCAR-5 ovarian): > 100 µM | TGI (LOX IMVI melanoma): > 100 µM | TGI (OVCAR-3 ovarian): > 100 µM | TGI (NCI-H460 lung): > 100 µM | TGI (HCT-116 colon): > 100 µM | TGI (RPMI-8226 leukemia): 45.3 µM | TGI (SF-539 CNS): > 100 µM | TGI (BT-549 breast): > 100 µM | TGI (M14 melanoma): > 100 µM | TGI (SNB-19 CNS): > 100 µM | TGI (MALME-3M melanoma): > 100 µM | TGI (U251 CNS): > 100 µM | TGI (A549 NSCLC): > 100 µM | TGI (COLO 205 colon): > 100 µM | TGI (KM12 colon): > 100 µM | TGI (SW-620 colon): > 100 µM | TGI (MDA-N): > 100 µM | TGI (SF-268 CNS): > 100 µM | TGI (PC-3 prostate): > 100 µM | TGI (RXF 393 renal): 73.3 µM | TGI (NCI-H522 lung): > 100 µM | TGI (TK-10 renal): > 100 µM | TGI (SK-MEL-28 melanoma): > 100 µM | TGI (SN12C renal): > 100 µM | TGI (MCF7 breast): > 100 µM | TGI (SK-OV-3 ovarian): > 100 µM | TGI (ACHN renal): > 100 µM | TGI (EKVX NSCLC): > 100 µM | TGI (MDA-MB-435): > 100 µM | TGI (CCRF-CEM leukemia): 63.7 µM | TGI (A498 renal): > 100 µM | TGI (HOP-62 NSCLC): > 100 µM | TGI (T-47D breast): 53.5 µM | TGI (NCI/ADR-RES ovarian): > 100 µM | TGI (CAKI-1 renal): > 100 µM | TGI (UACC-62 melanoma): > 100 µM | TGI (HT29 colon): > 100 µM | TGI (SK-MEL-5 melanoma): > 100 µM | TGI (NCI-H23 lung): > 100 µM | TGI (MDA-MB-231 breast): > 100 µM

C=CC1=C(C)C2=NC1=CC1=NC(=CC3=C(C)C4=C(O)[C@H](C(=O)OC)C(=C5NC(=C2)[C@@H](C)[C@@H]5CCC(=O)O)C4=N3)C(CC)=C1C
TGI (786-0 renal): > 28.2 µM | TGI (SNB-75 CNS): 8.25 µM | TGI (DU-145 prostate): > 100 µM | TGI (SF-295 CNS): 6.01 µM | TGI (SR leukemia): 1.5 µM | TGI (K-562 leukemia): 6.24 µM | TGI (HS 578T breast): > 100 µM | TGI (IGROV1 ovarian): > 23.8 µM | TGI (SK-MEL-2 melanoma): > 22.2 µM | TGI (OVCAR-4 ovarian): 22 µM | TGI (UO-31 renal): 11.7 µM | TGI (HCT-15 colon): 9.72 µM | TGI (UACC-257 melanoma): 42.7 µM | TGI (OVCAR-8 ovarian): > 100 µM | TGI (OVCAR-5 ovarian): > 23.7 µM | TGI (NCI-H460 lung): 13.8 µM | TGI (HCT-116 colon): > 59 µM | TGI (SF-539 CNS): 4.63 µM | TGI (BT-549 breast): > 20.2 µM | TGI (SNB-19 CNS): > 100 µM | TGI (MALME-3M melanoma): > 100 µM | TGI (U251 CNS): > 41.2 µM | TGI (A549 NSCLC): > 43.9 µM | TGI (COLO 205 colon): 11.8 µM | TGI (KM12 colon): > 20.5 µM | TGI (SW-620 colon): 10.8 µM | TGI (MDA-N): > 100 µM | TGI (HOP-92 NSCLC): 3.98 µM | TGI (SF-268 CNS): > 100 µM | TGI (NCI-H226 lung): > 100 µM | TGI (PC-3 prostate): > 41.1 µM | TGI (RXF 393 renal): 9.1 µM | TGI (TK-10 renal): 25.5 µM | TGI (HCC-2998 colon): 4.23 µM | TGI (SK-MEL-28 melanoma): 3.54 µM | TGI (SN12C renal): > 100 µM | TGI (MCF7 breast): 11 µM | TGI (SK-OV-3 ovarian): > 40 µM | TGI (ACHN renal): 7.21 µM | TGI (MDA-MB-435): > 46.5 µM | TGI (HOP-62 NSCLC): > 33.5 µM | TGI (T-47D breast): 62.4 µM | TGI (NCI/ADR-RES ovarian): > 22.1 µM | TGI (CAKI-1 renal): > 100 µM | TGI (UACC-62 melanoma): 7.99 µM | TGI (SK-MEL-5 melanoma): 3.75 µM | TGI (NCI-H23 lung): 9.12 µM | TGI (MDA-MB-231 breast): > 60.5 µM

From PubChem BioAssay (NCI)
